Experimental data: ChEMBL document CHEMBL1144791, “Facile synthesis of substituted trans-2-arylcyclopropylamine inhibitors of the human histone demethylase LSD1 and monoamine oxidases A and B” (Bioorg Med Chem Lett, 2008)

Tests used:
Inhibition of human MAOB = settings: read-out: Kinact
[1] = target: MAO-A (amine oxidase [flavin-containing] A), Homo sapiens (UniProt P21397); experiment: Ratio of Kinact to KI of human MAOA
[2] = target: MAO-B (amine oxidase [flavin-containing] B), Homo sapiens (UniProt P27338); experiment: Ratio of Kinact to KI of human MAOB
MAO-B (amine oxidase [flavin-containing] B), Homo sapiens, sequence (P27338 whole entry, looked up): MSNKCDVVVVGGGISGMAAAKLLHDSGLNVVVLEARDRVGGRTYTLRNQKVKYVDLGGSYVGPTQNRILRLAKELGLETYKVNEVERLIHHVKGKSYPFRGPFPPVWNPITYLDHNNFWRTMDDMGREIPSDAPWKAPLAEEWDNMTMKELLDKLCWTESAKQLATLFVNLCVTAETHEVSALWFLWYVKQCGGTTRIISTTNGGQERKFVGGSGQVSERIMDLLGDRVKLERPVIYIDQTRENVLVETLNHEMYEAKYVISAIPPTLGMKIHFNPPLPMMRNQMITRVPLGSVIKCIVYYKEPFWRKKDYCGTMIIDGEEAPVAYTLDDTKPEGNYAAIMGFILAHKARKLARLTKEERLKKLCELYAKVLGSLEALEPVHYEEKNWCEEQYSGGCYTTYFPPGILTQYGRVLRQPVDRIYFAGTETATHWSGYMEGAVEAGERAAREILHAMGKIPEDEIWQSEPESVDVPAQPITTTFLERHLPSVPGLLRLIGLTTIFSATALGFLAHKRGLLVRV

Inhibition of human MAOA = settings: read-out: Kinact

MAO-A (amine oxidase [flavin-containing] A), Homo sapiens, sequence (P21397 whole entry, looked up): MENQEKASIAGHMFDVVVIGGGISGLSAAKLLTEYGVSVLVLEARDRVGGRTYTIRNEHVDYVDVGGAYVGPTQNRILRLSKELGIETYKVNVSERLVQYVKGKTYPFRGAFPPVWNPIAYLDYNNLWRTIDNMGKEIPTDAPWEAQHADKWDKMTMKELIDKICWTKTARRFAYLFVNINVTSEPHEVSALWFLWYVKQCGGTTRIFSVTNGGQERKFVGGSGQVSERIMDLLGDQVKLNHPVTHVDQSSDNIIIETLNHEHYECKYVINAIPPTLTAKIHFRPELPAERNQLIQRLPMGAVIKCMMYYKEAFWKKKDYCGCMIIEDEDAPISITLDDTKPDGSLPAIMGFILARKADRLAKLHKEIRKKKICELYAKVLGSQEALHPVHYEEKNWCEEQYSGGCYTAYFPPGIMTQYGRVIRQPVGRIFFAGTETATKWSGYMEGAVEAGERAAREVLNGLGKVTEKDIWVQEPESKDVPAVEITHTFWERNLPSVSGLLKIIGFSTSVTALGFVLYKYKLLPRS

| kinact/KI [1] [M⁻¹ s⁻¹] | kinact/KI [2] [M⁻¹ s⁻¹] | KI (inactivation) (Inhibition of human MAOA) [µM] | SMILES | KI (inactivation) (Inhibition of human MAOB) [µM] |
| --- | --- | --- | --- | --- |
| < 14 | < 1.5 |  | NC1CC1(c1ccccc1)c1ccccc1 (stereo not drawn) |  |
| 362 | 4840 | 9.8 | N[C@@H]1C[C@H]1c1cccc2ccccc12 (relative stereo) | 38.7 |
| < 18 | 22.3 | 1550 | N[C@@H]1C[C@H]1c1ccsc1 (relative stereo) |  |

| SMILES | kinact/KI [1] [M⁻¹ s⁻¹] | kinact/KI [2] [M⁻¹ s⁻¹] | KI (inactivation) (Inhibition of human MAOA) [µM] | KI (inactivation) (Inhibition of human MAOB) [µM] |
| --- | --- | --- | --- | --- |
| N[C@@H]1C[C@H]1c1ccc(C(F)(F)F)cc1 (relative stereo) | 2860 | 7510 | 7.7 | 29.8 |
